What was measured:
Type in all cases: functional
Melanocortin receptor 5 = Melanocortin receptor 5 (Mus musculus, UniProt P41149); assay: In vitro agonist potency for Mouse Melanocortin 5 receptor
[1] = molecular target: Melanocyte-stimulating hormone receptor (Mus musculus, UniProt Q01727); assay: In vitro agonist potency for Mouse Melanocortin 1 receptor
Melanocortin receptor 3 = Melanocortin receptor 3 (Mus musculus, UniProt P33033); assay: In vitro agonist potency for Mouse Melanocortin 3 receptor
Melanocortin receptor 3, sequence (P33033 whole entry): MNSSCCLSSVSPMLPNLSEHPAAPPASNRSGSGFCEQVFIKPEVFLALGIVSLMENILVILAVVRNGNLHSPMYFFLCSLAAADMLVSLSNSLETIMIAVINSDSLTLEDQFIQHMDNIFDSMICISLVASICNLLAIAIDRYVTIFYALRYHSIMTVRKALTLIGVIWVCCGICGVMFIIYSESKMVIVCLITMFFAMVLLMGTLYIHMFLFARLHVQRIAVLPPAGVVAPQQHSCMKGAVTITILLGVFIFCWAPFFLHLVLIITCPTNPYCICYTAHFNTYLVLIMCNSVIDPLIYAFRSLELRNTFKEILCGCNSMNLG

Melanocortin receptor 4 = Melanocortin receptor 4 (Mus musculus, UniProt P56450); assay: In vitro agonist potency for Mouse Melanocortin 4 receptor
Melanocortin receptor 4, sequence (P56450 whole entry): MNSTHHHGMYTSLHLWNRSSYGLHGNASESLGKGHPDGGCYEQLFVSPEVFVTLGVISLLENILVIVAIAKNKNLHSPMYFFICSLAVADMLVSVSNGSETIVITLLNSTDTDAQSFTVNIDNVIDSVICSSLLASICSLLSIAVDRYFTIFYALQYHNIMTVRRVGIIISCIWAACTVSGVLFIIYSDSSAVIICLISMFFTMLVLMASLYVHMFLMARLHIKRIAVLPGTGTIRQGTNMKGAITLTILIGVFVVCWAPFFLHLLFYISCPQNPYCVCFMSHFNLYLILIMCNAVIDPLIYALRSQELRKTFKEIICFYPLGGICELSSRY

Melanocyte-stimulating hormone receptor, sequence (Q01727 whole entry): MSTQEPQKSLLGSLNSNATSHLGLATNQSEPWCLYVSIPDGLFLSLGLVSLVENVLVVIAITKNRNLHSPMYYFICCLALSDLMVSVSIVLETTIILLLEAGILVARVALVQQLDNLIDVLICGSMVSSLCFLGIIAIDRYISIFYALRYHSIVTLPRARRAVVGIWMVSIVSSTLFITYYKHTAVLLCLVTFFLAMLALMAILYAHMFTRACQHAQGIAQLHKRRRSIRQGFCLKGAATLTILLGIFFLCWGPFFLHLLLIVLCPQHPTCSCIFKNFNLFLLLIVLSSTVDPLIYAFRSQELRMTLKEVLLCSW
Melanocortin receptor 5, sequence (P41149 whole entry): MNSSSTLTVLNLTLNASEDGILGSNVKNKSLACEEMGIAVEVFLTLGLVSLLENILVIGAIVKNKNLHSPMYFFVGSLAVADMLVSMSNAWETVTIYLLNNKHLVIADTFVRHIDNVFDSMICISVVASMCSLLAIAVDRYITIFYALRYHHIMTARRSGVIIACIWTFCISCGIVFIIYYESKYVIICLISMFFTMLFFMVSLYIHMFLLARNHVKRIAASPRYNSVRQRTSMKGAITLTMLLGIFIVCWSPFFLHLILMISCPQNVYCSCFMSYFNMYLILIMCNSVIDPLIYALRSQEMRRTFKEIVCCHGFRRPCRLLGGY

| Structure (SMILES) | EC50 (Melanocortin receptor 5) | EC50 [1] | EC50 (Melanocortin receptor 3) | EC50 (Melanocortin receptor 4) |
| --- | --- | --- | --- | --- |
| CCCCCCCCCCCCCCC(=O)N[C@@H](Cc1c[nH]cn1)C(=O)N[C@H](Cc1ccccc1)C(=O)N[C@@H](CCCN=C(N)N)C(=O)N[C@@H](Cc1c[nH]c2ccccc12)C(N)=O | 3.02 nM | 2.07 nM | 134 nM | 13.2 nM |
| CCCCCCCCCC(=O)N[C@@H](Cc1c[nH]cn1)C(=O)N[C@H](Cc1ccccc1)C(=O)N[C@@H](CCCN=C(N)N)C(=O)N[C@@H](Cc1c[nH]c2ccccc12)C(N)=O | 4.83 nM | 3.34 nM | 44.8 nM | 14.4 nM |
| CCCCCCCCCCCCCC(=O)N[C@@H](Cc1c[nH]cn1)C(=O)N[C@H](Cc1ccccc1)C(=O)N[C@@H](CCCN=C(N)N)C(=O)N[C@@H](Cc1c[nH]c2ccccc12)C(N)=O | 3.39 nM | 0.58 nM | 220 nM | 10.5 nM |
| CCCCCCCCCCC(=O)N[C@@H](Cc1cnc[nH]1)C(=O)N[C@H](Cc1ccccc1)C(=O)N[C@@H](CCCNC(=N)N)C(=O)N[C@@H](Cc1c[nH]c2ccccc12)C(N)=O | 10 nM | 2.8 nM | 102 nM | 19 nM |
| CCCCCCCC(=O)N[C@@H](Cc1c[nH]cn1)C(=O)N[C@H](Cc1ccccc1)C(=O)N[C@@H](CCCN=C(N)N)C(=O)N[C@@H](Cc1c[nH]c2ccccc12)C(N)=O | 0.57 nM | 0.33 nM | 9.29 nM | 2.52 nM |
| CCCCCCCCCCCCCCCC(=O)N[C@@H](Cc1cnc[nH]1)C(=O)N[C@H](Cc1ccccc1)C(=O)N[C@@H](CCCNC(=N)N)C(=O)N[C@@H](Cc1c[nH]c2ccccc12)C(N)=O | 2.99 nM | 0.99 nM | 154 nM | 26.6 nM |
| CC(=O)N[C@@H](Cc1cnc[nH]1)C(=O)N[C@H](Cc1ccccc1)C(=O)N[C@@H](CCCN=C(N)N)C(=O)N[C@@H](Cc1c[nH]c2ccccc12)C(N)=O | – | – | – | 10.7 nM |
| CCCCCCCCCCCCCCCCC(=O)N[C@@H](Cc1c[nH]cn1)C(=O)N[C@H](Cc1ccccc1)C(=O)N[C@@H](CCCN=C(N)N)C(=O)N[C@@H](Cc1c[nH]c2ccccc12)C(N)=O | 2.82 nM | 0.72 nM | 266 nM | 21.4 nM |
| CCCCCCCCC(=O)N[C@@H](Cc1cnc[nH]1)C(=O)N[C@H](Cc1ccccc1)C(=O)N[C@@H](CCCNC(=N)N)C(=O)N[C@@H](Cc1c[nH]c2ccccc12)C(N)=O | 0.88 nM | 0.4 nM | 5.1 nM | 1.14 nM |
| N=C(N)NCCC[C@H](NC(=O)[C@@H](Cc1ccccc1)NC(=O)[C@@H](N)Cc1cnc[nH]1)C(=O)N[C@@H](Cc1c[nH]c2ccccc12)C(N)=O | 2.78 nM | 67 nM | 250 nM | 18.5 nM |
| CCCCCCCCCCCCC(=O)N[C@@H](Cc1cnc[nH]1)C(=O)N[C@H](Cc1ccccc1)C(=O)N[C@@H](CCCNC(=N)N)C(=O)N[C@@H](Cc1c[nH]c2ccccc12)C(N)=O | 4.43 nM | 0.94 nM | 139 nM | 20.6 nM |
